This note sets out measurements from patent US10343992B2, “1-cyano-pyrrolidine compounds as USP30 inhibitors” (MISSION THERAPEUTICS LIMITED, priority 2015, dated 2019).

As a reminder, the IC50 is the point on the concentration scale where inhibition reaches its midpoint.

The structures appear in SMILES notation.

Sequence of USP30 (Q70CQ3 57-517): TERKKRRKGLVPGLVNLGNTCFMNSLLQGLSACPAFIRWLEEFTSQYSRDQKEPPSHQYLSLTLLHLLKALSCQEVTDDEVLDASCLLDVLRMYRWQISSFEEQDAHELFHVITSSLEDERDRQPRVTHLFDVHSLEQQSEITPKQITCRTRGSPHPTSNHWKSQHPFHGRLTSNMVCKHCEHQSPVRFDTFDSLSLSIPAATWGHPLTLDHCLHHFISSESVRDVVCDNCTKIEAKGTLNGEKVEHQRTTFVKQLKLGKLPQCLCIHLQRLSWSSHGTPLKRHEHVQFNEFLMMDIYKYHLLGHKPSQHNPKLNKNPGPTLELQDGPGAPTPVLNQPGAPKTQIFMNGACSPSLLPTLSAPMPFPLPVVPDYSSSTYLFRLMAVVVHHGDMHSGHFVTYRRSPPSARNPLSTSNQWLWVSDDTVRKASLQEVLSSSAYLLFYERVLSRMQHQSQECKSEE

The target in this experiment is USP30 (Homo sapiens (Human), UniProt Q70CQ3). Nature of the experiment: USP30 biochemical FP or FI IC50 assay. The following applies: read-out: IC50 range. In a few lines:
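Human USP30 preincubated 30 min at room temperature with compound (8-point series, 100 µM top final) in Tris pH 7.5, Tween 20, BSA, 5 mM β-mercaptoethanol, in duplicate. FP format: 50 nM TAMRA-peptide–isopeptide-ubiquitin substrate, ex 540/em 590. FI format: 100 nM ubiquitin-rhodamine 110, ex 487/em 535. Both read at 0 and after 2 h at room temperature.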
As to `Cc1nc2nccc-2c(-c2ccc(C(=O)N[C@@H]3CCN(C#N)C3)c(F)c2)[nH]1` [Example 184, (R)-N-(1-cyanopyrrolidin-3-yl)-2-fluoro-4-(2-methyl-3H-pyrrolo[2,3-d]pyrimidin-4-yl)benzamide], the IC50 was less than 0.1 µM.
`N#CN1CC[C@@H](NC(=O)c2ccc(-c3cnc4cnccn34)cc2F)C1` [Example 185, (R)-N-(1-cyanopyrrolidin-3-yl)-2-fluoro-4-(imidazo[1,2-a]pyrazin-3-yl)benzamide]: the IC50 was less than 0.1 µM.
As for `N#CN1CC[C@@H](NC(=O)c2ncc(-c3ccn4nccc4n3)cc2F)C1` [Example 186, (R)-N-(1-cyanopyrrolidin-3-yl)-3-fluoro-5-(pyrazolo[1,5-a]pyrimidin-5-yl)picolinamide], the IC50 fell in the range of 0.1 to 1 µM.
Then `N#CN1CC[C@@H](NC(=O)c2ncc(-c3ccc4nccn4c3)cc2F)C1` [Example 187, (R)-N-(1-cyanopyrrolidin-3-yl)-3-fluoro-5-(imidazo[1,2-a]pyridin-6-yl)picolinamide], with 0.1 to 1 µM; and `COC1(c2ccccc2)CN(C(=O)N[C@@H]2CCN(C#N)C2)C1` [Example 188, (R)-N-(1-cyanopyrrolidin-3-yl)-3-methoxy-3-phenylazetidine-1-carboxamide], with 0.1 to 1 µM; and `CN(C(=O)N1CC(c2ccccc2)C1)[C@@H]1CCN(C#N)C1` [Example 189, (R)-N-(1-cyanopyrrolidin-3-yl)-N-methyl-3-phenylazetidine-1-carboxamide], with 0.1 to 1 µM.
With `COc1ccc(C2CN(C(=O)N[C@@H]3CCN(C#N)C3)C2)cc1` [Example 190, (R)-N-(1-cyanopyrrolidin-3-yl)-3-(4-methoxyphenyl)azetidine-1-carboxamide] the figure was less than 0.1 µM; with `N#CN1CC[C@@H](NC(=O)N2CC(c3ccc(Cl)cc3)C2)C1` [Example 191, (R)-3-(4-chlorophenyl)-N-(1-cyanopyrrolidin-3-yl)azetidine-1-carboxamide], less than 0.1 µM.
Then `N#CN1CC[C@@H](NC(=O)N2CC(c3cccc(Cl)c3)C2)C1` [Example 192, (R)-3-(3-chlorophenyl)-N-(1-cyanopyrrolidin-3-yl)azetidine-1-carboxamide], with less than 0.1 µM; and `N#CN1C[C@H]2CCN(C(=O)N3CC(c4ccccc4)C3)[C@H]2C1` [Example 193, (3aR,6aR)-1-(3-phenylazetidine-1-carbonyl)hexahydropyrrolo[3,4-b]pyrrole-5(1H)-carbonitrile], with 0.1 to 1 µM.
Regarding `CN(C(=O)Nc1ccc(-c2cnn(C)c2)cc1)[C@@H]1CCN(C#N)C1` [Example 194, (R)-1-(1-cyanopyrrolidin-3-yl)-1-methyl-3-(4-(1-methyl-1H-pyrazol-4-yl)phenyl)urea], the IC50 lay within 0.1 to 1 µM.
Then `CN(C(=O)Nc1ccc(C(F)(F)F)cc1)[C@@H]1CCN(C#N)C1` [Example 195, (R)-1-(1-cyanopyrrolidin-3-yl)-1-methyl-3-(4-(trifluoromethyl)phenyl)urea], with 0.1 to 1 µM.
Then `N#CN1C[C@H]2CCN(C(=O)Nc3ccc(Cl)cc3F)[C@H]2C1` [Example 196, (3aR,6aR)-N-(4-chloro-2-fluorophenyl)-5-cyanohexahydropyrrolo[3,4-b]pyrrole-1(2H)-carboxamide], with 0.1 to 1 µM.
As for `N#CN1C[C@H]2CCN(C(=O)Nc3ccc(OC(F)(F)F)cc3F)[C@H]2C1` [Example 197, (3aR,6aR)-5-cyano-N-(2-fluoro-4-(trifluoromethoxy)phenyl)hexahydropyrrolo[3,4-b]pyrrole-1(2H)-carboxamide], the IC50 is less than 0.1 µM.
As for `N#Cc1cc(F)c(NC(=O)N2CC[C@@H]3CN(C#N)C[C@@H]32)cc1F` [Example 199, (3aR,6aR)-5-cyano-N-(4-cyano-2,5-difluorophenyl)hexahydropyrrolo[3,4-b]pyrrole-1(2H)-carboxamide], the IC50 is 0.1 to 1 µM.
Regarding `N#CN1C[C@H]2CCN(C(=O)Nc3cc(C(F)(F)F)ccc3F)[C@H]2C1` [Example 201, (3aR,6aR)-5-cyano-N-(2-fluoro-5-(trifluoromethyl)phenyl)hexahydro-pyrrolo[3,4-b]pyrrole-1(2H)-carboxamide], the IC50 is less than 0.1 µM.
With `N#CN1C[C@H]2CCN(C(=O)Nc3ccc(-c4ccccc4)cn3)[C@H]2C1` [Example 202, (3aR,6aR)-5-cyano-N-(5-phenyl-pyridin-2-yl)hexahydropyrrolo[3,4-b]pyrrole-1(2H)-carboxamide] the figure was less than 0.1 µM; with `N#CN1C[C@H]2CCN(C(=O)Nc3ccc(C(F)(F)F)cc3)[C@H]2C1` [Example 203, (3aR,6aR)-5-cyano-N-(4-(trifluoromethyl)-phenyl)-hexahydropyrrolo[3,4-b]pyrrole-1(2H)-carboxamide], less than 0.1 µM.
As to `CCN(C(=O)Nc1ccc(C(F)(F)F)cc1)[C@@H]1CCN(C#N)C1` [Example 204, (R)-1-(1-cyanopyrrolidin-3-yl)-1-ethyl-3-(4-(trifluoromethyl)phenyl)urea], the IC50 was less than 0.1 µM.
Then `COCCN(C(=O)Nc1ccc(C(F)(F)F)cc1)C1CCN(C#N)C1` (stereo not drawn) [Example 205, 1-(1-cyanopyrrolidin-3-yl)-1-(2-methoxyethyl)-3-(4-(trifluoromethyl)phenyl)urea], with 0.1 to 1 µM.
Then `CCN(C(=O)c1ccc(-c2cnn(C)c2)c(F)c1)[C@@H]1CCN(C#N)C1` [Example 206, (R)-N-(1-cyanopyrrolidin-3-yl)-N-ethyl-3-fluoro-4-(1-methyl-1H-pyrazol-4-yl)benzamide], with 0.1 to 1 µM; and `CCN(C(=O)N1CC(c2ccccc2)C1)[C@@H]1CCN(C#N)C1` [Example 207, (R)-N-(1-cyanopyrrolidin-3-yl)-N-ethyl-3-phenylazetidine-1-carboxamide], with 0.1 to 1 µM; and `N#CN1CC[C@@H](N2CCN(c3nc(-c4ccccc4)cs3)C2=O)C1` [Example 208, (R)-3-(2-oxo-3-(4-phenylthiazol-2-yl)imidazolidin-1-yl)pyrrolidine-1-carbonitrile], with 0.1 to 1 µM.
Then `N#CN1CC[C@@H](N2CCCN(c3nc(-c4ccccc4)cs3)C2=O)C1` [Example 209, (R)-3-(2-oxo-3-(4-phenylthiazol-2-yl)tetrahydropyrimidin-1(2 H)-yl)pyrrolidine-1-carbonitrile], with 0.1 to 1 µM.
`N#CN1CC[C@@H](N2CCN(c3cccc(N4CCOCC4)c3)C2=O)C1` [Example 210, (R)-3-(3-(3-morpholinophenyl)-2-oxoimidazolidin-1-yl)pyrrolidine-1-carbonitrile]: the IC50 is 0.1 to 1 µM.
Then `N#CN1CC[C@@H](NC(=O)c2ccc3c(c2)OCCN3c2ncccn2)C1` [Example 211, (R)-N-(1-cyanopyrrolidin-3-yl)-4-(pyrimidin-2-yl)-3,4-dihydro-2H-benzo[b][1, 4]oxazine-7-carboxamide], with 0.1 to 1 µM.
Then `N#CN1CC[C@@H](NC(=O)c2ccc3c(c2)OCCN3c2nccc(C3CC3)n2)C1` [Example 212, (R)-N-(1-cyanopyrrolidin-3-yl)-4-(4-cyclopropylpyrimidin-2-yl)-3,4-dihydro-2H-benzo[b][1, 4]oxazine-7-carboxamide], with less than 0.1 µM.
With `N#CN1CC[C@@H](NC(=O)c2ccc(Nc3nccc(C4CC4)n3)c(F)c2)C1` [Example 213, (R)-N-(1-cyanopyrrolidin-3-yl)-4-((4-cyclopropylpyrimidin-2-yl)amino)-3-fluorobenzamide] the figure was less than 0.1 µM; with `N#CN1CC[C@@H](NC(=O)c2ccc(Nc3nccc(C4CC4)n3)c(F)c2F)C1` [Example 214, (R)-N-(1-cyanopyrrolidin-3-yl)-4-((4-cyclopropylpyrimidin-2-yl)amino)-2,3-difluorobenzamide], less than 0.1 µM; with `CC(C)C(=O)N(C)c1ccnc(C(=O)N[C@@H]2CCN(C#N)C2)c1` [Example 215, (R)-N-(1-cyanopyrrolidin-3-yl)-4-(N-methylisobutyramido)picolinamide], 0.1 to 1 µM.
Consider `N#CN1CC[C@@H](NC(=O)c2ccc(-c3ccccn3)cn2)C1` [Example 216, (R)-N-(1-cyanopyrrolidin-3-yl)-[2, 3′-bipyridine]-6′-carboxamide], for which the IC50 is 0.1 to 1 µM.
Then `N#CN1CC[C@@H](NC(=O)c2cc(-c3ccccn3)ccn2)C1` [Example 217, (R)-N-(1-cyanopyrrolidin-3-yl)-[2, 4′-bipyridine]-2′-carboxamide], with 0.1 to 1 µM.
Regarding `N#CN1CC[C@@H](NC(=O)c2cc(-c3ccc(C(F)(F)F)cc3)no2)C1` [Example 219, (R)-N-(1-cyanopyrrolidin-3-yl)-3-(4-(trifluoromethyl)phenyl)isoxazole-5-carboxamide], the IC50 was in the range of 0.1 to 1 µM.
`COc1ccc(-c2cc(C(=O)N[C@@H]3CCN(C#N)C3)on2)cc1OC` [Example 220, (R)-N-(1-cyanopyrrolidin-3-yl)-3-(3,4-dimethoxyphenyl)isoxazole-5-carboxamide]: the IC50 fell in the range of 0.1 to 1 µM.
Regarding `COc1cccc(-c2cc(C(=O)N[C@@H]3CCN(C#N)C3)on2)c1` [Example 221, (R)-N-(1-cyanopyrrolidin-3-yl)-3-(3-methoxyphenyl)isoxazole-5-carboxamide], the IC50 was less than 0.1 µM.
With `N#CN1CC[C@@H](NC(=O)C2CCN(c3ccccc3)C2)C1` (stereo partly drawn) [Example 222, N-((R)-1-cyanopyrrolidin-3-yl)-1-phenylpyrrolidine-3-carboxamide] the figure was 0.1 to 1 µM; with `Cc1cn(-c2ccc(C(=O)N[C@@H]3CCN(C#N)C3)cc2F)cn1` [Example 223, (R)-N-(1-cyanopyrrolidin-3-yl)-3-fluoro-4-(4-methyl-1H-imidazol-1-yl)benzamide], less than 0.1 µM; with `Cc1cn(-c2ccc(C(=O)N(C)[C@@H]3CCN(C#N)C3)cc2F)cn1` [Example 224, (R)-N-(1-cyanopyrrolidin-3-yl)-3-fluoro-N-methyl-4-(4-methyl-1H-imidazol-1-yl)benzamide], 0.1 to 1 µM.
For `N#CN1CC[C@@H](NC(=O)N2CCC(c3ccccn3)C2)C1` (stereo partly drawn) [Example 225, N-((R)-1-cyanopyrrolidin-3-yl)-3-(pyridin-2-yl)pyrrolidine-1-carboxamide], the IC50 lay within 1 to 10 µM.
